One experiment addresses T1, human LPA1 (Homo sapiens, UniProt Q92633).
T1 construct: expressed in transfected cells; host or cells: Chinese hamster ovary (CHO) cells
Nature of the experiment: LPA1 functional antagonist assay (LPA-induced calcium flux). The settings on record: CHO cells overexpressing human LPA1; inhibition of calcium flux induced by 10 nM LPA; read-out: hLPA1 IC50. The experiment is classed as cell-based. The method, boiled down: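 CHO cells overexpressing human LPA1, loaded with calcium dye, given compound (0.08 nM–5 μM final, 0.5% DMSO) for 20 min at room temperature in HBSS/HEPES with 0.1% fatty-acid-free BSA, then stimulated with 10 nM LPA. IC50 defined as 50% inhibition of LPA-induced calcium flux, from 4-parameter logistic fit.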
Background: Calcium assays in cells follow changes in intracellular calcium, usually with a dye or a luminescent sensor.

The subject of the next experiment is nerve-injured mice. The settings on record: pretreatment; cited from earlier work.
In experiment [1] the test system is mouse epithelial renal cell line, MCT. The settings on record: co-treatment with LPA, MCT cells; cited from earlier work.
In experiment [2] the test system is human foetal lung fibroblasts. The settings on record: cited from earlier work.
Another experiment concerns UUO mice. The settings on record: compared with LPA1 (-/-) mice; cited from earlier work.
In experiment [3] the test system is pancreatic cancer cell lines. The settings on record: cited from earlier work.
Experiment [4] concerns highly peritoneal metastatic pancreatic cancer cell line. The settings on record: cited from earlier work.

pIC50: −log10 of the molar value.

T1 sequence (Q92633 whole entry): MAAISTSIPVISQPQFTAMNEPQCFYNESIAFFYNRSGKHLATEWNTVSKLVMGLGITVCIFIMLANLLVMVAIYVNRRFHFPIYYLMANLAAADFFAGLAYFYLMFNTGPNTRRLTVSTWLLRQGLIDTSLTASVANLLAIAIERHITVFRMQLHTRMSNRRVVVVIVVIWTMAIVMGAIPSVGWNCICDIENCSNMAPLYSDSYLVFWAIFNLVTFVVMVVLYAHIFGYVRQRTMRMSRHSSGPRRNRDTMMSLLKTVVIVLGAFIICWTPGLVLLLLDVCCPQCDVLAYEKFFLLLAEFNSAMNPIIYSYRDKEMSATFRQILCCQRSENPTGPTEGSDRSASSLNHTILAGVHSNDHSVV

Turning to `Cc1noc(-c2ccc(OC3CCC(C(=O)O)C3)cn2)c1CNc1nccc(-c2ccccc2)n1` (single isomer, unassigned) [Example 46], the pIC50 at human LPA1 is 7.25.
The same measure, in the same setting: to `Cc1nc(-c2nnn(C)c2COC(=O)N(C)CC2CCC2)ccc1O[C@H]1CC[C@H](CC(=O)O)C1` (single isomer, unassigned) [Example 49, (±)-trans-2-[3-({6-[5-({[(cyclobutyl-methyl)(methyl)carbamoyl]oxy}methyl)-1-methyl-1H-1,2,3-triazol-4-yl]-2-methylpyridin-3-yl}oxy)cyclopentyl]acetic acid] belongs 7.89; to `Cc1nc(-c2nnn(C)c2COC(=O)N(C)CC2CCC2)ccc1O[C@H]1CC[C@H](C(=O)O)C1` (single isomer, unassigned) [Example 78, Trans-(1,3)-3-({6-[5-({[(cyclobutyl-methyl)(methyl)carbamoyl]oxy}methyl)-1-methyl-1H-1,2,3-triazol-4-yl]-2-methylpyridin-3-yl}oxy)cyclopentane-1-carboxylic acid], 7.55.
On the same count and under the same terms, to `Cc1nc(-c2nnn(C)c2COC(=O)N(C)CC2CCC2)ccc1O[C@H]1CC[C@H](C(=O)O)C1` (single isomer, unassigned) [Example 79, Trans-(1,3)-3-({6-[5-({[(cyclobutyl-methyl) (methyl)carbamoyl]oxy}methyl)-1-methyl-1H-1,2,3-triazol-4-yl]-2-methylpyridin-3-yl}oxy)cyclo-pentane-1-carboxylic acid] belongs 6.17.
Still for that read-out and setting: to `Cc1noc(-c2ccc(OC3CCC(C(=O)O)C3)cn2)c1CNc1nccc(-c2ccccc2)n1` (centres unmarked) [Example 42, 3-((6-(3-methyl-4-(((4-phenylpyrimidin-2-yl)amino)methyl)isoxazol-5-yl)pyridin-3-yl)oxy)cyclopentane-1-carboxylic Acid] belongs 7.59.
`C[C@@H](N)[C@H]1CC[C@H](C(=O)Nc2ccncc2)CC1` [Example Y-27632]: in the experiment with nerve-injured mice, the allodynia and hyperalgesia result is “completely abolished”.
As to `Cc1noc(-c2ccc(CSCCC(=O)O)cc2)c1NC(=O)OC(C)c1ccccc1Cl` (centres unmarked) [Ki16425], the “LPA-induced increase in expression of the profibrotic cytokine CTGF” value in experiment [1] is on record as “almost completely suppressed”. Besides, the “chemotaxis of human foetal lung fibroblasts induced by BAL obtained from IPF patients” value in experiment [2] is recorded as “blocked”. The “development of renal fibrosis in UUO mice” value in the experiment on UUO mice is listed as “closely resembled the profile of LPA1 (−/−) mice”. Besides, in experiment [3], the “in vitro migration in response to LPA and peritoneal fluid (ascites) from pancreatic cancer patients” value is recorded as “effectively blocked”. The “LPA-induced and ascites-induced invasion activity” value in experiment [4] was “blocked”.

What is called pIC50 is the IC50 on a negative log10 scale, so that one unit is a factor of ten.

These data come from patent publication US12209072B2, “Cyclopentyl acids as LPA antagonists” (BRISTOL-MYERS SQUIBB COMPANY, priority 2018, dated 2025).
